One test addresses Avi-tagged FL MALT-1 (Homo sapiens (Human), UniProt Q9UDY8). In words: MALT-1 Fluorogenic Peptide Cleavage Assay (MALT1 inhibition assay). It counts as biochemical. To be noted: Ac-LRSR-AMC peptide substrate, 30 min pre-incubation, 90 min reaction at room temperature. In outline: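 Full-length Avi-tagged human MALT-1 (40 nM working stock) pre-incubated 30 min at RT with compound in 25 mM HEPES pH 6.89, 660 mM sodium citrate, 1 mM TCEP, […], 0.05% CHAPS, 2% DMSO. Ac-LRSR-AMC added at Km (50 μM working stock) or 10×Km (280 μM working stock); 90 min at RT, AMC fluorescence (ex 342/em 441 nm), IC50 from % inhibition curves.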

Test [1] relates to NF-kB reporter in Jurkat cells. In words: NF-kB reporter assay in Jurkat cells stimulated with aCD3/aCD28/PMA. It counts as cell-based. Conditions: Homo sapiens, read-out: NF-kB Reporter Assay IC50. In outline:
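Jurkat cells (25,000/well, serum-free RPMI) were pre-incubated 1 h at 37° C with serially diluted compound, then stimulated 4 h with aCD3/aCD28/PMA at final […]. NF-kB reporter activity was read by One-Glo luminescence; IC50 values reported.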
(In a reporter assay the amount or activity of a reporter protein is the signal.)

[2] abbreviates: Jurkat cells, 1 hr compound pre-incubation, aCD3/aCD28/PMA stimulation 4 hr, One-Glo readout.

As usually defined, the IC50 is the concentration needed to halve the response being measured.

Like-named read-outs stand apart in the source and are kept apart here.

Sequence of Avi-tagged FL MALT-1 (Q9UDY8 whole entry): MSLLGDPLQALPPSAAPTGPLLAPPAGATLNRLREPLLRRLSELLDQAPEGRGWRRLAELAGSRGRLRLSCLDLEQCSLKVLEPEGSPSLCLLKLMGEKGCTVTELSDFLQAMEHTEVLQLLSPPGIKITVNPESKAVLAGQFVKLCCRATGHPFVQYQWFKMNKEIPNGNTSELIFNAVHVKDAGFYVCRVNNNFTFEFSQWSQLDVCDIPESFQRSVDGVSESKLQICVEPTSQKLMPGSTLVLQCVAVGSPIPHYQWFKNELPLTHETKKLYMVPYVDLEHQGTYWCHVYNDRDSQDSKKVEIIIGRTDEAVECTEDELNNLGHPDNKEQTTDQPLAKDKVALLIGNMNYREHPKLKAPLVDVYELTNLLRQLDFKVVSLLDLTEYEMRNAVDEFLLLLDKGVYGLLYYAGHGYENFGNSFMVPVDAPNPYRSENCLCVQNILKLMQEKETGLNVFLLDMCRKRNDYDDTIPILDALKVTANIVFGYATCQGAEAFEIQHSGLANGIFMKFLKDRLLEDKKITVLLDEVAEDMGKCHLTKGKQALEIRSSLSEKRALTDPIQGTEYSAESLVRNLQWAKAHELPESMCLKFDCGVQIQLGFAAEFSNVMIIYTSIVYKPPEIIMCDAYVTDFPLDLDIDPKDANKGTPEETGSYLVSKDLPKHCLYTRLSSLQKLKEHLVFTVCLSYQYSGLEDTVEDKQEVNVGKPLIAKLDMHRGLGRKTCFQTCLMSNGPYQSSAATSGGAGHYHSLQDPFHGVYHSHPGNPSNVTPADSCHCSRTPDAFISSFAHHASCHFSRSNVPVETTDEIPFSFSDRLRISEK

For the compound `COc1ccc2cnn(C)c2c1NS(=O)(=O)c1cnn(-c2cc(C(C)O)ccn2)c1` (stereo not drawn) [Compound I-134, 1-(4-(1-hydroxyethyl)pyridin-2-yl)-N-(6-methoxy-1-methyl-1H-indazol-7-yl)-1H-pyrazole-4-sulfonamide], the IC50 on Avi-tagged FL MALT-1 was 400 to 1000 nM; in test [1] (setting [2]), < 400 nM.
Consider `COc1ccc2cnn(C)c2c1NS(=O)(=O)c1cnn(-c2ccnc(C(F)(F)F)c2)c1` [Compound I-4, N-(6-Methoxy-1-Methyl-1H-Indazol-7-yl)-1-(2-(Trifluoromethyl)Pyridin-4-yl)-1H-Pyrazole-4-Sulfonamide], for which the IC50 on Avi-tagged FL MALT-1 is ≤ 400 nM; in test [1] (setting [2]), < 400 nM.
On to `Cc1ccc2cnn(C)c2c1NS(=O)(=O)c1cnn(-c2ccnc(C(F)(F)F)c2)c1` [Compound I-59, N-(1,6-Dimethyl-1H-Indazol-7-yl)-1-(2-(Trifluoromethyl)Pyridin-4-yl)-1H-Pyrazole-4-Sulfonamide], for which the 50% inhibitory concentration (IC50) against Avi-tagged FL MALT-1 is ≤ 400 nM; in test [1] (setting [2]), 400 to 1000 nM.
Taken in the same sequence, the figures for `CC[C@H](OC)c1ccnc(-n2cc(S(=O)(=O)Nc3c(OC)ccc4cnn(C)c34)cn2)c1` [Compound I-317, (S)—N-(6-Methoxy-1-Methyl-1H-Indazol-7-yl)-1-(4-(1-Methoxypropyl)Pyridin-2-yl)-1H-Pyrazole-4-Sulfonamide] were ≤ 400 nM and < 400 nM.
The matching figures for `Cc1n[nH]c2cccc(NS(=O)(=O)c3cnn(-c4ccc(C(F)(F)F)cn4)c3)c12` [Compound I-45, N-(3-Methyl-1H-Indazol-4-yl)-1-(5-(Trifluoromethyl)Pyridin-2-yl)-1H-Pyrazole-4-Sulfonamide]: > 2500 nM and < 400 nM.
For the compound `Cc1ccc2[nH]nc(C)c2c1NS(=O)(=O)c1cnn(-c2ccnc(C(F)(F)F)c2)c1` [Compound I-74, N-(3,5-Dimethyl-1H-Indazol-4-yl)-1-(2-(Trifluoromethyl)Pyridin-4-yl)-1H-Pyrazole-4-Sulfonamide], the figures for the IC50 (against Avi-tagged FL MALT-1; in test [1] (setting [2])) were ≤ 400 nM and 1000 to 2500 nM, respectively.
The matching figures for `Cn1ncc2cccc(NS(=O)(=O)c3cnn(-c4cc(N5CC6CC5C6)ccn4)c3)c21` [Compound I-409, 1-(4-{2-azabicyclo[2.1.1]hexan-2-yl}pyridin-2-yl)-N-(1-methylindazol-7-yl)pyrazole-4-sulfonamide]: > 2500 nM and < 400 nM.
On to `COc1ccc2cnn(C)c2c1NS(=O)(=O)c1cnn(-c2cc(C3(OC)CCC3)ccn2)c1` [Compound I-132, N-(6-Methoxy-1-Methyl-1H-Indazol-7-yl)-1-(4-(1-Methoxycyclobutyl)Pyridin-2-yl)-1H-Pyrazole-4-Sulfonamide], for which the IC50 on Avi-tagged FL MALT-1 was ≤ 400 nM; in test [1] (Jurkat) it was < 400 nM.
Turning to `COc1ccc2cnn(C)c2c1NS(=O)(=O)c1cnn(-c2cc(C3(O)CC(C)C3)ccn2)c1` (stereo not drawn) [Compound I-143, 1-(4-(1-hydroxy-3-methylcyclobutyl)pyridin-2-yl)-N-(6-methoxy-1-methyl-1H-indazol-7-yl)-1H-pyrazole-4-sulfonamide], the IC50 against Avi-tagged FL MALT-1 is 1000 to 2500 nM; in test [1] (setting [2]), < 400 nM.
Taken in the same sequence, the figures for `CC1CC(F)(c2ccnc(-n3cc(S(=O)(=O)Nc4cccc5cnn(C)c45)cn3)c2)C1` (stereo not drawn) [Compound I-394] were > 2500 nM and < 400 nM.
Taken in the same sequence, the figures for `Cn1ncc2cccc(NS(=O)(=O)c3cnn(-c4cc(N5CCCC5=O)ccn4)c3)c21` [Compound I-284] were > 2500 nM and < 400 nM.
Taken in the same sequence, the figures for `COC[C@](C)(OC)c1ccnc(-n2cc(S(=O)(=O)Nc3cccc4cnn(C)c34)cn2)c1` [Compound I-300] were > 2500 nM and < 400 nM.
With `Cc1n[nH]c2cccc(NS(=O)(=O)c3cnn(-c4ccnc(C5CC5)c4)c3)c12` [Compound I-88, 1-(2-Cyclopropylpyridin-4-yl)-N-(3-Methyl-1H-Indazol-4-yl)-1H-Pyrazole-4-Sulfonamide], the half-maximal inhibitory concentration (IC50) at Avi-tagged FL MALT-1 was > 2500 nM; in test [1] (setting [2]), < 400 nM.
`Cn1ncc2cccc(NS(=O)(=O)c3cnn(-c4cc(C5(O)CCC5)ccn4)c3)c21` [Compound I-107, 1-(4-(1-Hydroxycyclobutyl)Pyridin-2-yl)-N-(1-Methyl-1H-Indazol-7-yl)-1H-Pyrazole-4-Sulfonamide]: the IC50 was > 2500 nM against Avi-tagged FL MALT-1 and < 400 nM in test [1] (Jurkat).
For `CCc1ccc2cnn(C)c2c1NS(=O)(=O)c1cnn(-c2ccnc(C(F)(F)F)c2)c1C` [Compound I-30, N-(6-Ethyl-1-Methyl-1H-Indazol-7-yl)-5-Methyl-1-(2-(Trifluoromethyl)Pyridin-4-yl)-1H-Pyrazole-4-Sulfonamide], the 50% inhibitory concentration (IC50) lay within 400 to 1000 nM on Avi-tagged FL MALT-1 and 1000 to 2500 nM in test [1] (setting [2]).
Taken in the same sequence, the figures for `CCc1ccc2cnn(C)c2c1NS(=O)(=O)c1cn(-c2ccnc(C(F)(F)F)c2)nn1` [Compound I-27, N-(6-Ethyl-1-Methyl-1H-Indazol-7-yl)-1-(2-(Trifluoromethyl) Pyridin-4-yl)-1H-1,2,3-Triazole-4-Sulfonamide] were 400 to 1000 nM and > 2500 nM.
The matching figures for `COc1ncc2cnn(C)c2c1NS(=O)(=O)c1cnn(-c2cc(C(C)OC)ccn2)c1` (single isomer, unassigned) [Compound I-272, N-(6-methoxy-1-methyl-1H-pyrazolo[4,3-c]pyridin-7-yl)-1-(4-(1-methoxyethyl)pyridin-2-yl)-1H-pyrazole-4-sulfonamide]: ≤ 400 nM and < 400 nM.
The matching figures for `COc1ncc2cnn(C)c2c1NS(=O)(=O)c1cnn(-c2cc(N3CCC4(CC4)C3)ccn2)c1` [Compound I-424]: > 2500 nM and < 400 nM.
With `COc1ccc2cnn(C)c2c1NS(=O)(=O)c1cnn(-c2cc(N3CC[C@@H](C)C3)ccn2)c1` [Compound I-403], the IC50 at Avi-tagged FL MALT-1 is > 2500 nM; in test [1] (setting [2]) it was < 400 nM.
The matching figures for `CC[C@@](C)(O)c1ccnc(-n2cc(S(=O)(=O)Nc3c(OC)ccc4cnn(C)c34)cn2)c1` [Compound I-316]: 1000 to 2500 nM and < 400 nM.
Taken in the same sequence, the figures for `Cn1ncc2ccc(C3CC3)c(NS(=O)(=O)c3cnn(-c4ccnc(C(F)(F)F)c4)c3)c21` [Compound I-21, N-(6-cyclopropyl-1-Methyl-1H-Indazol-7-yl)-1-(2-(Trifluoromethyl)Pyridin-4-yl)-1H-Pyrazole-4-Sulfonamide] were ≤ 400 nM and < 400 nM.
For the compound `COc1ccc2cnn(C)c2c1NS(=O)(=O)c1cnn(-c2cc(C3(OC)CC(C)C3)ccn2)c1` (stereo not drawn) [Compound I-142, N-(6-methoxy-1-methyl-1H-indazol-7-yl)-1-(4-(1-methoxy-3-methylcyclobutyl)pyridin-2-yl)-1H-pyrazole-4-sulfonamide], the IC50 at Avi-tagged FL MALT-1 was 400 to 1000 nM; in test [1] (setting [2]) it was < 400 nM.
Taken in the same sequence, the figures for `Cc1ccnc(-n2cc(S(=O)(=O)Nc3cccc4[nH]nc(C)c34)cn2)c1` [Compound I-63, N-(3-Methyl-1H-Indazol-4-yl)-1-(4-Methylpyridin-2-yl)-1H-Pyrazole-4-Sulfonamide] were > 2500 nM and < 400 nM.
The matching figures for `[2H]c1nn(C([2H])([2H])[2H])c2c(NS(=O)(=O)c3cnn(-c4cc(C(C)(F)F)ccn4)c3)cccc12` [Compound I-380, 1-(4-(1,1-difluoroethyl)pyridin-2-yl)-N-(1-(methyl-d3)-1H-indazol-7-yl-3-d)-1H-pyrazole-4-sulfonamide]: 1000 to 2500 nM and < 400 nM.
As for `Cn1nc2c(NS(=O)(=O)c3cnn(-c4cc(C(F)(F)F)ccn4)c3)cccc2c1Cl` [Compound I-105, N-(3-chloro-2-methyl-2H-indazol-7-yl)-1-(4-(trifluoromethyl)pyridin-2-yl)-1H-pyrazole-4-sulfonamide], the IC50 against Avi-tagged FL MALT-1 was > 2500 nM; in test [1] (setting [2]) it was 1000 to 2500 nM.
Taken in the same sequence, the figures for `COc1ncc2cnn(C)c2c1NS(=O)(=O)c1cnn(-c2cc(C(C)(C)OC)ccn2)c1` [Compound I-261, N-(6-Methoxy-1-Methyl-1H-Pyrazolo[4,3-C]Pyridin-7-yl)-1-(4-(2-Methoxypropan-2-yl)Pyridin-2-yl)-1H-Pyrazole-4-Sulfonamide] were ≤ 400 nM and < 400 nM.
The matching figures for `Cn1ncc2cccc(NS(=O)(=O)c3cnn(-c4cc(C5CC(O)C5)ccn4)c3)c21` (stereo not drawn) [Compound I-374, 1-(4-(3-hydroxycyclobutyl)pyridin-2-yl)-N-(1-methyl-1H-indazol-7-yl)-1H-pyrazole-4-sulfonamide]: > 2500 nM and < 400 nM.
Taken in the same sequence, the figures for `COc1ccc2cnn(C)c2c1NS(=O)(=O)c1cnn(-c2cc(N3CCC(C)CC3)ccn2)c1` [Compound I-418] were > 2500 nM and < 400 nM.
As to `O=S(=O)(Nc1cccc2cnn(C(F)F)c12)c1cnn(-c2cc(C(F)F)ccn2)c1` [Compound I-108, N-[1-(difluoromethyl)indazol-7-yl]-1-[4-(difluoromethyl)pyridin-2-yl]pyrazole-4-sulfonamide], the IC50 (against Avi-tagged FL MALT-1; in test [1] (setting [2])) was > 2500 nM each time.
As to `CC[C@@H](O)c1ccnc(-n2cc(S(=O)(=O)Nc3cccc4cnn(C)c34)cn2)c1` [Compound I-278, (R)-1-(4-(1-hydroxypropyl)pyridin-2-yl)-N-(1-methyl-1H-indazol-7-yl)-1H-pyrazole-4-sulfonamide], the IC50 at Avi-tagged FL MALT-1 is > 2500 nM; in test [1] (setting [2]), < 400 nM.

For the origin of these results see patent US20240150321A1, “PYRAZOLYLSULFONAMIDE COMPOUNDS AND THEIR USE IN THERAPY” (HOTSPOT THERAPEUTICS, INC., priority 2022, published 2024).
